Biological target: unphosphorylated-BTK kinase domain (UP-BTK), GST-tagged human BTK (389-659aa) (Homo sapiens (Human), UniProt Q06187)
Test: BTK kinase Lanthascreen binding assay
Conditions: 60 minutes incubation, 50 nM Tracer 236, pIC50 = negative log of the IC50 in molar; for IC50: read-out: BTK_I_binding pIC50 (converted)
Procedure, shortened: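 Values are pIC50, i.e. negative log of IC50 in molar, derived from concentration–response fitting. Each compound competes with a fluorescently labelled tracer for the unphosphorylated kinase domain.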

[1] = unphosphorylated-BTK kinase domain

Sequence of unphosphorylated-BTK kinase domain (UP-BTK), GST-tagged human BTK (389-659aa) (Q06187 389-659): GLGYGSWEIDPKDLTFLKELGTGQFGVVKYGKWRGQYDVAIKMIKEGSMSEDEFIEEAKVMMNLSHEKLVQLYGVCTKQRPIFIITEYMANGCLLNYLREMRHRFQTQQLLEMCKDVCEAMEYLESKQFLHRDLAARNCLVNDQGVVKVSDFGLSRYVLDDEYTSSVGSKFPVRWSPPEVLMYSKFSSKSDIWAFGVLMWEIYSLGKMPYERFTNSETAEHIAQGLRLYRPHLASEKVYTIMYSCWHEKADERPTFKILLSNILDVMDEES

Row | Compound | IC50 [nM] | BTK_I_binding pIC50 | also measured
1 | O=C(NC1CCCN(C(=O)CCCl)C1)c1sc2nccc3c2c1NC(=O)N3c1ccc(Oc2ccccc2)cn1 (stereo in doubt) [Example 906, (R)—N-(1-(3-Chloropropanoyl)piperidin-3-yl)-4-oxo-5-(5-phenoxypyridin-2-yl)-4,5-dihydro-3H-1-thia-3,5,8-triazaacenaphthylene-2-carboxamide] | – | – | BTK_I_binding pIC50 [1]: 6.7
2 | O=C(NC1CCNC1)c1sc2nccc3c2c1NC(=O)N3c1ccc(Oc2ccccc2)cc1 (stereo in doubt) [Example 934, (S)-4-Oxo-5-(4-phenoxyphenyl)-N-(pyrrolidin-3-yl)-4,5-dihydro-3H-1-thia-3,5,8-triazaacenaphthylene-2-carboxamide] | – | – | BTK_I_binding pIC50 [1]: 6.1
3 | C=CC(=O)N1C[C@H](O)C[C@@H](NC(=O)c2sc3nccc4c3c2NC(=O)N4c2ccc(Oc3ccccc3)cc2C)C1 [Example 6, N-((3R,5R)-1-Acryloyl-5-hydroxypiperidin-3-yl)-5-(2-methyl-4-phenoxyphenyl)-4-oxo-4,5-dihydro-3H-1-thia-3,5,8-triazaacenaphthylene-2-carboxamide] | 12.6 | – | –
4 | C=CC(=O)N1CC[C@@H](NC(=O)c2sc3nccc4c3c2NC(=O)N4c2ccc(Oc3ccccc3)c(F)c2C)C1 [Example 7, (R)—N-(1-Acryloylpyrrolidin-3-yl)-5-(3-fluoro-2-methyl-4-phenoxyphenyl)-4-oxo-4,5-dihydro-3H-1-thia-3,5,8-triazaacenaphthylene-2-carboxamide] | 12.6 | – | –
5 | C=CC(=O)N1C[C@H](NC(=O)c2sc3nccc4c3c2NC(=O)N4c2ccc(Oc3ccccc3)cc2C)C[C@@H](OC)C1 [Example 8, N-((3R,5R)-1-Acryloyl-5-methoxypiperidin-3-yl)-5-(2-methyl-4-phenoxyphenyl)-4-oxo-4,5-dihydro-3H-1-thia-3,5,8-triazaacenaphthylene-2-carboxamide] | 15.8 | – | –
6 | C=CC(=O)N1C[C@@H](O)C[C@@H](NC(=O)c2sc3nccc4c3c2NC(=O)N4c2ccc(Oc3ccccc3)cc2C)C1 [Example 13, N-((3R,5S)-1-Acryloyl-5-hydroxypiperidin-3-yl)-5-(2-methyl-4-phenoxyphenyl)-4-oxo-4,5-dihydro-3H-1-thia-3,5,8-triazaacenaphthylene-2-carboxamide] | 15.8 | – | –
7 | C=CC(=O)N1C[C@H](NC(=O)c2sc3nccc4c3c2NC(=O)N4c2ccc(Oc3ccccc3)cc2C)C[C@H](OC)C1 [Example 14, N-((3R,5S)-1-Acryloyl-5-methoxypiperidin-3-yl)-5-(2-methyl-4-phenoxyphenyl)-4-oxo-4,5-dihydro-3H-1-thia-3,5,8-triazaacenaphthylene-2-carboxamide] | – | 7.4 | –
8 | C=CC(=O)N1CCC[C@@H](NC(=O)c2sc3nccc4c3c2NC(=O)N4c2ccc(Oc3cccc4ccoc34)cc2C)C1 [Example 16, (R)—N-(1-Acryloylpiperidin-3-yl)-5-(4-(benzofuran-7-yloxy)-2-methylphenyl)-4-oxo-4,5-dihydro-3H-1-thia-3,5,8-triazaacenaphthylene-2-carboxamide] | – | 7.3 | –
9 | C=CC(=O)N1CC[C@@H](NC(=O)c2sc3nccc4c3c2NC(=O)N4c2ccc(Oc3c(F)cccc3F)cc2C)C1 [Example 17, (R)—N-(1-Acryloylpyrrolidin-3-yl)-5-(4-(2,6-difluorophenoxy)-2-methylphenyl)-4-oxo-4,5-dihydro-3H-1-thia-3,5,8-triazaacenaphthylene-2-carboxamide] | – | 7.7 | –
10 | C=CC(=O)N1CCC[C@@H](NC(=O)c2sc3nccc4c3c2NC(=O)N4c2ccc(Oc3ccccc3CC)cc2C)C1 [Example 19, (R)—N-(1-Acryloylpiperidin-3-yl)-5-(4-(2-ethylphenoxy)-2-methylphenyl)-4-oxo-4,5-dihydro-3H-1-thia-3,5,8-triazaacenaphthylene-2-carboxamide] | 63.1 | – | –
11 | Cc1cc(Oc2ccccc2)ccc1N1C(=O)Nc2c(C(=O)N[C@@H]3CCCN(C(=O)/C(C#N)=C/C4(C)COC4)C3)sc3nccc1c23 [Example 21, (R,E)-N-(1-(2-cyano-3-(3-methyloxetan-3-yl)acryloyl)piperidin-3-yl)-5-(2-methyl-4-phenoxyphenyl)-4-oxo-4,5-dihydro-3H-1-thia-3,5,8-triazaacenaphthylene-2-carboxamide] | – | 7.7 | –

Continued, in another order:

Row | IC50 [nM] | BTK_I_binding pIC50 | Compound | also measured
12 | 20 | – | C=CC(=O)N1C[C@H](F)C[C@@H](NC(=O)c2sc3nccc4c3c2NC(=O)N4c2ccc(Oc3ccccc3)cc2C)C1 [Example 1, N-((3R,5R)-1-Acryloyl-5-fluoropiperidin-3-yl)-5-(2-methyl-4-phenoxyphenyl)-4-oxo-4,5-dihydro-3H-1-thia-3,5,8-triazaacenaphthylene-2-carboxamide] | –
13 | – | 7.7 | C=CC(=O)N1CCC[C@@H](NC(=O)c2sc3nccc4c3c2NC(=O)N4c2ccc(Oc3ccccc3)c(F)c2C)C1 [Example 4, (R)—N-(1-Acryloylpiperidin-3-yl)-5-(3-fluoro-2-methyl-4-phenoxyphenyl)-4-oxo-4,5-dihydro-3H-1-thia-3,5,8-triazaacenaphthylene-2-carboxamide] | –
14 | 7.94 | – | C=CC(=O)N1CCC[C@@H](NC(=O)c2sc3nccc4c3c2NC(=O)N4c2ccc(Oc3ccccc3)cc2F)C1 [Example 10, (R)—N-(1-Acryloylpiperidin-3-yl)-5-(2-fluoro-4-phenoxyphenyl)-4-oxo-4,5-dihydro-3H-1-thia-3,5,8-triazaacenaphthylene-2-carboxamide] | –
15 | – | 7.9 | C=CC(=O)N1CC[C@@H](NC(=O)c2sc3nccc4c3c2NC(=O)N4c2ccc(Oc3ccccc3)cc2C)C1 [Example 11, (R)—N-(1-Acryloylpyrrolidin-3-yl)-5-(2-methyl-4-phenoxyphenyl)-4-oxo-4,5-dihydro-3H-1-thia-3,5,8-triazaacenaphthylene-2-carboxamide] | –
16 | – | 7.7 | C=CC(=O)N1CC[C@@H](NC(=O)c2sc3nccc4c3c2NC(=O)N4c2ccc(Oc3ccccc3)cc2Cl)C1 [Example 12, (R)—N-(1-Acryloylpyrrolidin-3-yl)-5-(2-chloro-4-phenoxyphenyl)-4-oxo-4,5-dihydro-3H-1-thia-3,5,8-triazaacenaphthylene-2-carboxamide] | –
17 | – | 7.6 | C=CC(=O)N1CCC[C@@H](NC(=O)c2sc3nccc4c3c2NC(=O)N4c2ccc(Oc3ccccc3)cc2Cl)C1 [Example 15, (R)—N-(1-Acryloylpiperidin-3-yl)-5-(2-chloro-4-phenoxyphenyl)-4-oxo-4,5-dihydro-3H-1-thia-3,5,8-triazaacenaphthylene-2-carboxamide] | –
18 | – | 8.2 | C=CC(=O)N1CCC[C@@H](NC(=O)c2sc3nccc4c3c2NC(=O)N4c2ccc(Oc3ccccc3)cc2)C1 [Example 18, (R)—N-(1-Acryloylpiperidin-3-yl)-4-oxo-5-(4-phenoxyphenyl)-4,5-dihydro-3H-1-thia-3,5,8-triazaacenaphthylene-2-carboxamide] | –
19 | – | 7.4 | C=CC(=O)N1CCC[C@@H](NC(=O)c2sc3nccc4c3c2NC(=O)N4c2c(C)cc(Oc3ccccc3)cc2F)C1 [Example 20, (R)—N-(1-Acryloylpiperidin-3-yl)-5-(2-fluoro-6-methyl-4-phenoxyphenyl)-4-oxo-4,5-dihydro-3H-1-thia-3,5,8-triazaacenaphthylene-2-carboxamide] | –

Source: patent US10800792B2, “Inhibitors of Bruton's tyrosine kinase and method of their use” (JANSSEN PHARMACEUTICA NV, priority 2015, dated 2020)
